Biological target: URAT-1 transporter (Homo sapiens (Human), UniProt Q96S37)
Experiment: URAT-1 inhibitor activity: [14C]-uric acid uptake in CHO-URAT1(L)GFP#8 (CHO#8) cells, scintillation proximity
Type: cell-based
Details: not given
From the text: The nucleotide sequence for the long isoform of URAT1 (NM_144585) was C-terminally fused to that of enhanced green fluorescent protein (eGFP) (hereinafter referred to as URAT1(L)GFP). The combined sequence was codon-optimised and custom synthesized. The synthesized sequence was generated in pDONR221 Gateway entry vector (Invitrogen Life Technologies) prior to cloning in pLenti6.3/V5 Gateway destination vector (Invitrogen Life Technologies).
Lentiviral particles were generated according to ViraPower HiPerform expression system procedure (Invitrogen Life Technologies) and used to transduce CHO cells. […] The clonal pools were sorted using fluorescence-activated cell sorting (FACS) on the basis of GFP expression with the gating set at the top 50% of expression into single cells which were subsequently expanded to generate clonal lines. […] This cell line was used for all screening activities and is referred to as CHO-URAT1(L)GFP#8 or CHO#8.
The potency of the compounds of formula (I) as inhibitors of the URAT-1 transporter was determined as follows.
CHO#8 cells were cultured in cell line maintenance flasks in medium consisting of Dulbecco's modified Eagle medium (DMEM) with high glucose and sodium pyruvate (4.5 g of glucose per liter, Invitrogen Life Technologies), supplemented with heat-inactivated foetal bovine serum (FBC, 10% v/v), 1×NEAA (non-essential amino acids) and blasticidin (10 μg/ml). Cultures were grown in 175 cm^2 tissue culture flasks in a humidified incubator at approximately 37° C. in approximately 95% air/5% CO2. Near confluent CHO#8 cell cultures were harvested by trypsinisation, re-suspended in culture medium and the process was repeated once or twice weekly to provide sufficient cells for use.
Assay ready flasks were generated by the same method, except the cells were not cultured in blasticidin.
Assay ready frozen cells were generated by freezing 40,000,000 cells in 1 ml of FBS (without blasticidin) containing 10% DMSO per vial. One vial was sufficient for 5 assay plates. Each vial was thawed rapidly to 37° C., washed and re-suspended in pre-warmed culture medium for seeding onto assay plates.
CHO#8 cells were seeded onto Cytostar™ 96-well plates at a density of […]. The cells were cultured for 1 day at approximately 37° C. in a humidified incubator containing approximately 5% CO2 in air. After approximately 24 hours culture, cells were used for uptake experiments.
On the day of assay, culture medium was removed from the wells and the cells were washed once with 50 μL of chloride-containing buffer (136.7 mM NaCl, 5.36 mM KCl, 0.952 mM CaCl2, 0.441 mM KH2PO4, 0.812 mM MgSO4, 5.6 mM D-glucose, 0.383 mM Na2HPO4.2H2O, 10 mM HEPES, pH 7.4 with NaOH). The cells were pre-incubated with another 50 μL of chloride-containing buffer for one hour at approximately 37° C. in a humidified incubator containing approximately 5% CO2 in air.
Assay compound plates were prepared by diluting the compounds of formula (I) with chloride-free buffer (125 mM Na-gluconate, 4.8 mM K-gluconate, 1.3 mM Ca-gluconate, 1.2 mM KH2PO4, 1.2 mM MgSO4, 5.6 mM D-glucose, 25 mM HEPES, pH 7.4 with NaOH) in 100% DMSO to a final concentration of 1% DMSO. [^14C]-Uric Uric acid working stock was made by addition of radiolabeled compound to a final concentration of 120 nM in chloride-free buffer. In all wells, the final assay concentration of solvent (DMSO) was 0.25%; the final assay concentration of [^14C]-uric acid was 30 nM in chloride-free buffer and the final compound of formula (I) concentrations ranged from 0 to 10 μM.
After pre-incubation, cells were washed with 50 μL of chloride-free buffer and another 50 μL of chloride-free buffer was added.

Sequence of URAT-1 transporter (Q96S37 other isoform, or with tags, fused parts or gaps): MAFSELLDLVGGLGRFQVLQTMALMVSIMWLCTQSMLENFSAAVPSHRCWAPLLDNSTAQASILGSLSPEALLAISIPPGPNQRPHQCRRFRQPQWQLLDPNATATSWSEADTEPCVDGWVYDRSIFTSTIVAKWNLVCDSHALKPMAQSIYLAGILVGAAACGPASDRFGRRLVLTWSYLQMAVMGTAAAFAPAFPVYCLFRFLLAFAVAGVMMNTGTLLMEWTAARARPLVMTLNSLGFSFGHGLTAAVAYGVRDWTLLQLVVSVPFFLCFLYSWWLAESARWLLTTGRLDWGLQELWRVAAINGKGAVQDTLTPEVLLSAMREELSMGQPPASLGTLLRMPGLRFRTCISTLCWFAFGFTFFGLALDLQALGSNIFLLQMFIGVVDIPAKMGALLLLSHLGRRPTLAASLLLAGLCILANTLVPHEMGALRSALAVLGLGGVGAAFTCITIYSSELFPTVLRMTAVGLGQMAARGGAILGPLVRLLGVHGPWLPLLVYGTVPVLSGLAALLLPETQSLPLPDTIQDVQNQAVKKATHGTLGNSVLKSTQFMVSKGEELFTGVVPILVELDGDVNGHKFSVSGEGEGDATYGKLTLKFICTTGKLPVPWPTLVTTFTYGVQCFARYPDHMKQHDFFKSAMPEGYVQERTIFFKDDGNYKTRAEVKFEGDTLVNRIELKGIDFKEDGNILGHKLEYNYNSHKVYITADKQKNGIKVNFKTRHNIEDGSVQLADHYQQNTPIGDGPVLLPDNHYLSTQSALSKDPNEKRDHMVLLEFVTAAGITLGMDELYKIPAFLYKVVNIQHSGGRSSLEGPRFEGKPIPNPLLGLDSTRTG

Compound	IC50
[2H]c1c(Oc2ccc(S(=O)(=O)Nc3ccc(F)cn3)c(F)c2)c([2H])c(C([2H])([2H])[2H])c(C#N)c1C([2H])([2H])[2H] [Example 249]	21 nM

Same assay, conditions: inhibition of [14C]-uric acid (30 nM) uptake into CHO#8 cells; compound 0 to 10 μM; 4 parameter logistic fit

Compound	IC50
Cc1ccc(Oc2ccc(S(=O)(=O)Nc3ccc(F)cn3)cc2C#N)c(C)c1Cl [Example 175, 4-(3-chloro-2,4-dimethylphenoxy)-3-cyano-N-(5-fluoropyridin-2-yl)benzenesulfonamide]	455 nM
N#Cc1cc(S(=O)(=O)Nc2ccc(F)cn2)ccc1Oc1cc(Cl)ccc1C#N [Example 65, 4-(5-chloro-2-cyanophenoxy)-3-cyano-N-(5-fluoropyridin-2-yl)benzenesulfonamide]	182 nM
CC(C)(C)c1ccc(Oc2ccc(S(=O)(=O)Nc3ccc(F)cn3)cc2C#N)cc1 [Example 137, 4-(4-tert-butylphenoxy)-3-cyano-N-(5-fluoropyridin-2-yl)benzenesulfonamide]	> 10000 nM
COc1ccc(Cl)c(Oc2ccc(S(=O)(=O)Nc3ccc(F)cn3)cc2C#N)c1 [Example 44, 4-(2-chloro-5-methoxyphenoxy)-3-cyano-N-(5-fluoropyridin-2-yl)benzenesulfonamide]	167 nM
N#Cc1cc(S(=O)(=O)Nc2ccc(F)cn2)ccc1Oc1cc(Cl)c(C#N)c(Cl)c1 [Example 241, 3-cyano-4-(3,5-dichloro-4-cyanophenoxy)-N-(5-fluoropyridin-2-yl)benzenesulfonamide]	3 nM
COc1cc(F)cc(Oc2ccc(S(=O)(=O)Nc3ccc(F)cn3)cc2C#N)c1 [Example 8, 3-cyano-4-(3-fluoro-5-methoxyphenoxy)-N-(5-fluoropyridin-2-yl)benzenesulfonamide]	119 nM
Cc1ccc(Oc2ccc(S(=O)(=O)Nc3ccc(F)cn3)cc2C#N)cc1C#N [Example 59, 3-cyano-4-(3-cyano-4-methylphenoxy)-N-(5-fluoropyridin-2-yl)benzenesulfonamide]	> 10000 nM
Cc1ccc(F)c(Oc2ccc(S(=O)(=O)Nc3ccc(F)cn3)cc2C#N)c1F [Example 119, 3-cyano-4-(2,6-difluoro-3-methylphenoxy)-N-(5-fluoropyridin-2-yl)benzenesulfonamide]	90 nM
CCOc1ncccc1Oc1ccc(S(=O)(=O)Nc2ccc(F)cn2)cc1C#N [Example 154, 3-cyano-4-[(2-ethoxypyridin-3-yl)oxy]-N-(5-fluoropyridin-2-yl)benzenesulfonamide]	> 10000 nM
N#Cc1ccc(Oc2ccc(S(=O)(=O)Nc3cccnn3)cc2C#N)cc1F [Example 88, 3-cyano-4-(4-cyano-3-fluorophenoxy)-N-(pyridazin-3-yl)benzenesulfonamide]	429 nM
N#Cc1ccc(Oc2ccc(S(=O)(=O)Nc3cncnc3)cc2C#N)cc1Cl [Example 96, 4-(3-chloro-4-cyanophenoxy)-3-cyano-N-(pyrimidin-5-yl)benzenesulfonamide]	> 10000 nM
N#Cc1ccc(Oc2ccc(S(=O)(=O)Nc3ccc(F)cn3)cc2C#N)cc1F [Example 43, 3-cyano-4-(4-cyano-3-fluorophenoxy)-N-(5-fluoropyridin-2-yl)benzenesulfonamide]	53 nM
COc1ccc(C#N)cc1Oc1ccc(S(=O)(=O)Nc2ccc(F)cn2)cc1C#N [Example 197, 3-cyano-4-(5-cyano-2-methoxyphenoxy)-N-(5-fluoropyridin-2-yl)benzenesulfonamide]	> 10000 nM
N#Cc1ccc(Cl)c(Oc2ccc(S(=O)(=O)Nc3ccc(F)cn3)cc2C#N)c1 [Example 63, 4-(2-chloro-5-cyanophenoxy)-3-cyano-N-(5-fluoropyridin-2-yl)benzenesulfonamide]	321 nM
CC(C)c1cccc(Oc2ccc(S(=O)(=O)Nc3ccc(F)cn3)cc2C#N)c1 [Example 57, 3-cyano-N-(5-fluoropyridin-2-yl)-4-[3-(propan-2-yl)phenoxy]benzenesulfonamide]	> 10000 nM
N#Cc1cc(S(=O)(=O)Nc2ccc(F)cn2)ccc1Oc1cccc(Cl)c1C#N [Example 179, 4-(3-chloro-2-cyanophenoxy)-3-cyano-N-(5-fluoropyridin-2-yl)benzenesulfonamide]	> 728 nM
